Laboratory results: PubChem BioAssay (NCI)
Several values for one entry are separate records, joined by “and”; a condition that tells them apart may be missing. Identical values can stand only once.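 Protocol summary: plate cells (96-well), add compound at 5 concentrations, incubate 48 h, interpolate endpoints linearly. Abbreviation: GI50, concentration required for 50% inhibition of growth. TGI is the concentration that stops growth completely.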

Legend:
Test in all cases: inhibition of tumour cell growth, NCI panel, 48 h
T-47D breast = system: T-47D breast
HOP-18 NSCLC = system: HOP-18 NSCLC
DMS 273 small cell lung = system: DMS 273 small cell lung
M19-MEL melanoma = system: M19-MEL melanoma
SNB-78 CNS = system: SNB-78 CNS
LXFL 529 NSCLC = system: LXFL 529 NSCLC
DMS 114 small cell lung = system: DMS 114 small cell lung
MDA-N = system: MDA-N

Structure (SMILES) | GI50 (T-47D breast) | TGI (T-47D breast) | other results
CCC(=C/[C@H](C)C/C=C/C(C)=C/[C@@H](C)C(=O)[C@@H](C)[C@H](O)[C@@H](C)CC)/C=C/[C@H]1OC(=O)C=C[C@@H]1C | < 0.01 µM | 4.88 µM | –
Nc1ccccc1SC(CC(=O)c1ccccc1)c1cccc([N+](=O)[O-])c1 (configuration not stated) | 12.1 µM | 36.2 µM | –
O=C1CCCCN1c1ccccc1C#C/C=C\C#Cc1ccccc1C(F)(F)F | > 50 µM | > 50 µM | –
CN1CC[C@@H](NC(=O)Nc2ccc(C#N)cc2)C[C@@H]1c1nc2ccccc2[nH]1 | > 70.4 µM | > 100 µM | –
COc1ccc2nc(NC(=O)CSc3nnc4n3S(=O)(=O)c3ccccc3N4c3ccccc3)sc2c1 | > 100 µM | > 100 µM | –
Cc1ccc(-n2c3nc(=O)[nH]c(=O)c-3cc3cc([N+](=O)[O-])ccc32)cc1 | 14.3 µM | 36 µM | –
O=C1NC(=NC(CO)Cc2ccccc2)S/C1=C\c1ccc2ncccc2c1 (configuration not stated) | 21.1 µM and 5.26 µM | > 25 µM | –
COC(=O)C(CCCN1C(=O)c2ccccc2C1=O)C(=O)OC | – | – | TGI (HOP-18 NSCLC): > 100 µM; TGI (DMS 273 small cell lung): > 100 µM; TGI (M19-MEL melanoma): > 100 µM; TGI (SNB-78 CNS): > 100 µM; TGI (LXFL 529 NSCLC): > 100 µM; TGI (DMS 114 small cell lung): > 100 µM
COc1nc(NC2OC(COC(C)=O)C(OC(C)=O)C(OC(C)=O)C2OC(C)=O)c2c(OC(C)=O)cc(=O)oc2n1 (configuration not stated) | – | – | TGI (HOP-18 NSCLC): > 100 µM; TGI (DMS 273 small cell lung): > 100 µM; TGI (M19-MEL melanoma): > 100 µM; TGI (SNB-78 CNS): > 100 µM; TGI (LXFL 529 NSCLC): > 100 µM; TGI (DMS 114 small cell lung): > 100 µM
CC(C)(C)c1cc2c(O)c3cccc4c(=O)c5cccc6c5-c(c34)c2c(c1)c6=O | – | – | TGI (HOP-18 NSCLC): > 100 µM; TGI (DMS 273 small cell lung): > 100 µM; TGI (M19-MEL melanoma): > 100 µM; TGI (LXFL 529 NSCLC): > 100 µM
CC1=C2C(=C[C@@](C)(CO)[C@@H]2O)C(=O)[C@](C)(O)C12CC2 | – | 0.0545 µM | TGI (MDA-N): 27.2 nM and 10.5 nM
COc1cc(/C(C#N)=C/c2nc3c(N4CCOCC4)nc(Cl)nc3n2C)cc(OC)c1OC | – | 5.63 µM | –
Cc1nnc(NC(=O)c2nc(S(=O)(=O)Cc3ccc(F)cc3)ncc2Cl)s1 | 2.45 µM | 14.1 µM | –
CC(C)[C@@H]1C=C2CC[C@H]3[C@](C)(CN)CCC[C@]3(C)[C@H]2CC1 | 1.99 µM | 4.61 µM | –
O=CNc1ccc2c(c1)C(=O)c1ccccc1-2 | – | > 100 µM | TGI (MDA-N): > 100000 nM
O=C(Nc1ccc(Oc2ccc(Nc3nc4ccccc4s3)cc2)cc1)Nc1ccc(Cl)c(C(F)(F)F)c1 | 1.21 µM | 3.96 µM | –

Structure (SMILES) | GI50 (T-47D breast) | TGI (T-47D breast) | other results
Nc1c(C(=O)Nc2cccc(C(F)(F)F)c2)sc2nc3c(cc12)CCCCC3 | 1.55 µM | 8.31 µM | –
Nc1ccc(C2=NNC(=O)Cc3cc4c(cc32)OCCO4)cc1Cl | 5.42 µM | > 50 µM | –
COc1ccc2nc3cc(Cl)ccc3c(NCCNCC(C)O)c2c1 (configuration not stated) | 2.16 µM | 6.72 µM | –
CCn1c(-c2nonc2N)nc2c(C#CC(C)(C)O)nc(OC[C@@H](N)c3ccccc3)cc21 | 3.8 µM | 8.24 µM | –
Cn1ccc2c3c(Oc4ccc(NC(N)=O)cc4)ccnc3ccc21 | > 100 µM | > 100 µM | –
CC(=O)O/N=C(/C)c1ccccc1O | – | – | TGI (HOP-18 NSCLC): > 100 µM; TGI (DMS 273 small cell lung): > 100 µM; TGI (M19-MEL melanoma): > 100 µM; TGI (SNB-78 CNS): > 100 µM; TGI (LXFL 529 NSCLC): > 100 µM; TGI (DMS 114 small cell lung): > 100 µM
CCCOc1cc2ccccc2cc1C(=O)Nc1nc(N)c2c(ccc3nccc32)[nH]1 | 0.499 µM | 3.17 µM | –
CC1(C)OC1COc1c2occc2cc2ccc(=O)oc12 (configuration not stated) | – | > 100 µM | TGI (MDA-N): > 100000 nM
CC(=O)OCCOCNC(=S)N/N=C(\C)c1cnccn1 | – | – | TGI (HOP-18 NSCLC): 97.5 µM; TGI (DMS 273 small cell lung): 67 µM; TGI (M19-MEL melanoma): 46.3 µM; TGI (SNB-78 CNS): > 100 µM; TGI (LXFL 529 NSCLC): > 100 µM; TGI (DMS 114 small cell lung): 51.4 µM
CCCCCCCCCCCCC(O)c1ccc(C#CCCCCCCCCCO)o1 (configuration not stated) | 44.2 µM | > 100 µM | –
Nc1n[nH]c2cc(F)c([C@@H]3Nc4ccc5[nH]ncc5c4[C@H]4C5CCC(C5)[C@@H]34)cc12 (some centres not stated) | 9.96 µM | > 50 µM | –
COc1ccc(CCN=C2NC(=O)/C(=C/c3ccc4ncccc4c3)S2)cc1 | > 25 µM | > 25 µM | –
O=C(Nc1ccccc1-c1nn(C(=S)Nc2ccccc2)c(=S)n(C(=S)Nc2ccccc2)c1=O)C(F)(F)F | – | – | TGI (HOP-18 NSCLC): > 100 µM; TGI (DMS 273 small cell lung): > 100 µM; TGI (M19-MEL melanoma): > 94.9 µM; TGI (SNB-78 CNS): > 100 µM; TGI (LXFL 529 NSCLC): 54 µM; TGI (DMS 114 small cell lung): 38.9 µM
COC[C@H]1Cn2cc(-c3nc(Nc4ccnn4C)ncc3C)nc2C(=O)N1Cc1ccc(F)c(F)c1 | 65.5 µM | > 100 µM | –
O=c1c(-c2ccccc2)c2oc(c1-c1ccccc1)CSCc1cccc(c1)CSC2 | – | – | TGI (HOP-18 NSCLC): > 100 µM; TGI (DMS 273 small cell lung): > 100 µM; TGI (M19-MEL melanoma): > 100 µM; TGI (SNB-78 CNS): > 100 µM; TGI (LXFL 529 NSCLC): > 100 µM; TGI (DMS 114 small cell lung): > 100 µM
